The values that follow come from ChEMBL document CHEMBL4190341, “Synthesis and bioevaluation of 1-phenyl-pyrazole-4-carboxylic acid derivatives as potent xanthine oxidoreductase inhibitors” (Eur J Med Chem, 2017).

In data set [1] the target is T1, Xanthine dehydrogenase/oxidase (Bos taurus, UniProt P80457). Nature of the data set: Inhibition of bovine milk xanthine oxidoreductase pre-incubated for 3 mins followed xanthine substrate addition and measured every 1 mins for 10 mins by spectrophotometry.
T1 sequence (P80457 whole entry): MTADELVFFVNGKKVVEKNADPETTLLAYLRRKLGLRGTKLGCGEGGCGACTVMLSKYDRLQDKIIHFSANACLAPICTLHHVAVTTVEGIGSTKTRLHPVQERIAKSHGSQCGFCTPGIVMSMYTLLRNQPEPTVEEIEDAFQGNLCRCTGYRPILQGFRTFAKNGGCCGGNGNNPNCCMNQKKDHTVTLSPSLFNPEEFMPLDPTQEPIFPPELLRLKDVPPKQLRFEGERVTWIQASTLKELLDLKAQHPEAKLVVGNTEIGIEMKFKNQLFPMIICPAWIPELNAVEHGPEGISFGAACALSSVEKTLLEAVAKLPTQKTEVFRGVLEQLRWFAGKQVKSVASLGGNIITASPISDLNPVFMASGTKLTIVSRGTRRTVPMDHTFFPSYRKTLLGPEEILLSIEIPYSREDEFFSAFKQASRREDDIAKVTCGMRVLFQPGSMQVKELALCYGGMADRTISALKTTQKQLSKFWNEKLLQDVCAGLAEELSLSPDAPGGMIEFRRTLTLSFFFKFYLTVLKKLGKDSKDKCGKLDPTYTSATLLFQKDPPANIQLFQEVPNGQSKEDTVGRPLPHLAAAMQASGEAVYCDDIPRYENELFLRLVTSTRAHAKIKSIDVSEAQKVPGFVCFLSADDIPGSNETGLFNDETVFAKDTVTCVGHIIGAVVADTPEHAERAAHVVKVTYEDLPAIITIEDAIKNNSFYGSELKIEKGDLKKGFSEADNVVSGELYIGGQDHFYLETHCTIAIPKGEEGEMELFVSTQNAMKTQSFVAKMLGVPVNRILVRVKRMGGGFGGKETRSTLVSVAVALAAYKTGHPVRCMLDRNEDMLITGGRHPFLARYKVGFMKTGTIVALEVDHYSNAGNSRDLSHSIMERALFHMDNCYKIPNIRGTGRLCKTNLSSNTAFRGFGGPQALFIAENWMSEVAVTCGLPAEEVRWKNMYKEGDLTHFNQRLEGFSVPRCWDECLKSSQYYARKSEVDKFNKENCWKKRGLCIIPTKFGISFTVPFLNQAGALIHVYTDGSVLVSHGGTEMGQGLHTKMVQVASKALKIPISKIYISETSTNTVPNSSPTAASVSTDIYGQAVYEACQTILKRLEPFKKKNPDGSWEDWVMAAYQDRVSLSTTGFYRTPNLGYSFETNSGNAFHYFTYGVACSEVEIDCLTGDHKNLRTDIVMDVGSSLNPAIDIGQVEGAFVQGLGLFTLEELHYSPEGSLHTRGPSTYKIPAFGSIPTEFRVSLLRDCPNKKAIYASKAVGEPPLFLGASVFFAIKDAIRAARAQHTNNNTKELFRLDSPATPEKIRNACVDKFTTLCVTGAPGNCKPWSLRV
The subject of data set [2] is Mus musculus. The data set can be described thus: Hypouricemic effect in ICR mouse model of potassium oxonate and hypoxanthine-induced acute hyperuricemia assessed as reduction in serum uric acids level at 5 mg/kg, po dosed 1 hr after potassium oxonate and hypoxanthine challenge and measured after 1 hr post dose. The data set is classed as functional, organism-based.

Data set [3] deals with T1, Xanthine dehydrogenase/oxidase. Nature of the data set: Mixed type inhibition of bovine milk xanthine oxidoreductase pre-incubated for 3 mins using varying xanthine substrate levels and measured every 1 mins for 10 mins by spectrophotometry based Lineweaver-Burk plot. Particulars: cattle.
Data set [4] relates to Mus musculus. Nature of the data set: Hypouricemic effect in ICR mouse model of potassium oxonate and hypoxanthine-induced acute hyperuricemia assessed as reduction in serum uric acids level at 5 mg/kg, po dosed 1 hr after potassium oxonate and hypoxanthine challenge and measured after 1 to 4 hrs post dose. The data set is classed as functional, organism-based.
Data set [5] in a line: Half life in rat at 10 mg/kg, po measured during 5 mins to 24 hrs post dose by LC-MS/MS method. It is filed as ADME, organism-based. Particulars: in vivo.
Data set [6] can be described thus: Tmax in rat at 10 mg/kg, po measured during 5 mins to 24 hrs post dose by LC-MS/MS method. To be noted: in vivo. It is filed as ADME, organism-based.
A short description of data set [7]: Cmax in rat at 10 mg/kg, po measured during 5 mins to 24 hrs post dose by LC-MS/MS method. It is filed as ADME, organism-based. Details: dose 10 mg/kg, route oral. To be noted: in vivo.
The test system of the next data set is Rattus norvegicus. Nature of the data set: AUC (0 to infinity) in rat at 10 mg/kg, po measured during 5 mins to 24 hrs post dose by LC-MS/MS method. The data set is classed as ADME, organism-based. Details: dose 10 mg/kg, time infinity, route oral. Particulars: in vivo.
The nature of data set [8]: Tmax in rat at 3 mg/kg, po measured during 5 mins to 24 hrs post dose by LC-MS/MS method. Particulars: in vivo. The data set is classed as ADME, organism-based.

The source made the active and inactive calls. No cut-off for these calls is given here.

Regarding `CC(C)CNc1ccc(-n2cc(C(=O)O)cn2)cc1C#N`, the IC50 – broadly, the concentration needed to halve the response being measured – in data set [1] amounted to 7.7 nM.
The same measure, in the same setting: the value for `Cc1nn(-c2ccc(OCC(C)(C)C)c(C#N)c2)cc1C(=O)O` was 23 nM; that for `Cc1nn(-c2ccc(N3CCOCC3)c([N+](=O)[O-])c2)cc1C(=O)O` was more than 100 nM.
With `Cc1nc(-c2ccc(OCC(C)C)c(C#N)c2)sc1C(=O)O`, in the data set on Mus musculus [2], the result was Active.
In the case of `CC(C)CN(C)c1ccc(-n2cc(C(=O)O)cn2)cc1C#N`, in data set [1], the IC50 was 5.7 nM. Besides, the “inhibition (INH)” value in data set [3] is reported as “Active”. The outcome in the data set with Mus musculus [2] and in the data set with Mus musculus [4] was Active. Also, in data set [5], the half-life (in general, how long it takes for the measured level to halve) was 300 min. Moreover, the Tmax (usually the time at which the peak concentration occurs) in [6] amounted to 1 h. The highest level in [7] (Cmax) was 168 ng/mL. Further, in the data set with Rattus norvegicus, the AUC (commonly concentration integrated over time) amounted to 607 ng·h/mL.
In data set [1], `CCCCCCCCOc1ccc(-n2cc(C(=O)O)c(C)n2)cc1C#N` displayed an IC50 of more than 100 nM.
The molecule `CCOc1ccc(-n2cc(C(=O)O)c(C(F)(F)F)n2)cc1C#N` came in with an IC50 in data set [1] of more than 100 nM.
Still for that read-out and setting: the value for `Cc1nn(-c2ccc(N3CCCCC3)c(C#N)c2)cc1C(=O)O` was 13.3 nM; that for `CC(C)Oc1ccc(-n2cc(C(=O)O)c(C(F)(F)F)n2)cc1C#N` was more than 100 nM; that for `Cc1nn(-c2ccc(OC(C)C)c(C#N)c2)cc1C(=O)O` was 45 nM.
Consider `CC1CCCN1c1ccc(-n2cc(C(=O)O)cn2)cc1C#N` (stereo not given), for which the IC50 in [1] is 6.7 nM.
The same measure, in the same setting: the value for `CCOc1ccc(-n2cc(C(=O)O)c(C)n2)cc1C#N` was more than 100 nM.
The molecule `N#Cc1cc(-n2cc(C(=O)O)cn2)ccc1N1CCCC1` gave a half-maximal inhibitory concentration (IC50) in data set [1] of 5.7 nM.
Turning to `Cc1nn(-c2ccc(N3CCCCC3)c([N+](=O)[O-])c2)cc1C(=O)O`, the IC50 in data set [1] was determined as 59.6 nM.
Still for that read-out and setting: the same measure for `CCCCCCCCOc1ccc(-n2cc(C(=O)O)c(C(F)(F)F)n2)cc1C#N`: more than 100 nM; for `CN(C)c1ccc(-n2cc(C(=O)O)cn2)cc1C#N`: 10.8 nM.
Turning to `CC(C)COc1ccc(-n2cc(C(=O)O)c(C(F)(F)F)n2)cc1C#N`, the IC50 in [1] is more than 100 nM.
As to `CC(C)(C)COc1ccc(-n2cc(C(=O)O)c(C(F)(F)F)n2)cc1C#N`, the IC50 in data set [1] was more than 100 nM.
Molecule `Cc1nn(-c2ccc(N3CCOCC3)c(C#N)c2)cc1C(=O)O` showed an IC50 in data set [1] of more than 100 nM.
For `CC(C)(C)COc1ccc(-n2cc(C(=O)O)cn2)cc1C#N`, the Tmax in [8] was 30 min.
Molecule `N#Cc1cc(-n2cc(C(=O)O)cn2)ccc1N1CCCCC1` came in with a 50% inhibitory concentration (IC50) in data set [1] of 4.2 nM. Further, the result in the data set on Mus musculus [2] and in the data set on Mus musculus [4] was Active.
